A word on the pKi: it is −log10 of the Ki, conventionally taken in molar units.

pKi: −log10 of the molar value. Where only a bound is given, the exact number is not on record here.

The text below walks through data of patent publication US8501446B2 (Vertex Pharmaceuticals Incorporated, priority 2004, dated 2013).

What all share (assay type): biochemical
Assay [1] addresses JAK2 (Homo sapiens, UniProt O60674). The assay is described as follows: JAK2 inhibition assay (radioactive enzyme assay, as for JAK3). The following applies: average Ki if more than one value determined. The essentials:
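Both kinases: poly(Glu)4Tyr substrate in 100 mM HEPES pH 7.4, 10 mM MgCl2, 1 mM DTT. Run 20 min at 25° C, TCA stop, filter-bound ³³P counted, Ki(app) fitted after background subtraction. JAK3: final [γ-³³P]ATP 5 μM, enzyme added as 2 nM solution. JAK2: final poly(Glu)4Tyr 15 μM, final ATP 12 μM.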

In assay [2] the target is T1, full length Aurora-A (AA 1-403) (Homo sapiens, UniProt O14965).
T1 construct: full length Aurora-A (AA 1-403)
T1 sequence (O14965 1-403): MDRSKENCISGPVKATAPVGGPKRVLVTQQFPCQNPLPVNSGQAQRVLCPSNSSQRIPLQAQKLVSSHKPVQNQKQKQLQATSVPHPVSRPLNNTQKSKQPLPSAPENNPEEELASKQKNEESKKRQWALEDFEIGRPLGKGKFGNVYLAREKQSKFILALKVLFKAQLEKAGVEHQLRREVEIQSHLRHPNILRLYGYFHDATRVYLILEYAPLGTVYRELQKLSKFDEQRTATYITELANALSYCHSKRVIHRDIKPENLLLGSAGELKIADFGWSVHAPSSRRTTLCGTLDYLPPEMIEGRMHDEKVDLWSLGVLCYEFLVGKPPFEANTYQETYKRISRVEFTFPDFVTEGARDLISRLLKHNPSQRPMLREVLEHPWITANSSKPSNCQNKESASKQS
Description: Aurora-A inhibition assay, standard coupled enzyme system. As to conditions: average Ki if more than one value determined.

The target in assay [3] is T2, ROCK I (AA 6-553) (Homo sapiens, UniProt Q13464).
T2 construct: ROCK I (AA 6-553)
T2 sequence (Q13464 6-553, species assumed): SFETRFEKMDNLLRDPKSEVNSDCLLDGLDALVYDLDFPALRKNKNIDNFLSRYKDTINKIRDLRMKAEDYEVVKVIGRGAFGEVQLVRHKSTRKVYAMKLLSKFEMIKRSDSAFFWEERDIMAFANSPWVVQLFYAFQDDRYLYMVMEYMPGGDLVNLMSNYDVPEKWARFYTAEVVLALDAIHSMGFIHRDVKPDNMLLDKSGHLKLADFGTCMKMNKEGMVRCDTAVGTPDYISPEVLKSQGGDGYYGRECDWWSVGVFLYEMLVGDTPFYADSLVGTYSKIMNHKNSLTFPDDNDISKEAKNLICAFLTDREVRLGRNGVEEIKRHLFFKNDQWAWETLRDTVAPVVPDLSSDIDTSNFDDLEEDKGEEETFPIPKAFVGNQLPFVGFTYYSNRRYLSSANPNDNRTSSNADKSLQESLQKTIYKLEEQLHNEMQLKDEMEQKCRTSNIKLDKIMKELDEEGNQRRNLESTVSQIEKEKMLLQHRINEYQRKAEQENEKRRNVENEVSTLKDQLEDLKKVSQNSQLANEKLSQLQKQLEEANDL
Description: ROCK inhibition assay, standard coupled enzyme system ("Enzyme"). As to conditions: enzyme-linked assay. An outline of the steps:
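ROCK I (AA 6-553) at 45 nM and 30 °C with 45 μM ATP and 200 μM peptide, in 100 mM HEPES pH 7.5, 10 mM MgCl2, 25 mM NaCl, 2 mM DTT, 1.5% DMSO. ADP output read by a PK/LDH coupled system: 2.5 mM PEP, 350 μM NADH, 30 μg/ml PK, 10 μg/ml LDH.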

The target in assay [4] is T3, JAK3 (Homo sapiens, UniProt P52333).
T3 sequence (P52333 1-1124): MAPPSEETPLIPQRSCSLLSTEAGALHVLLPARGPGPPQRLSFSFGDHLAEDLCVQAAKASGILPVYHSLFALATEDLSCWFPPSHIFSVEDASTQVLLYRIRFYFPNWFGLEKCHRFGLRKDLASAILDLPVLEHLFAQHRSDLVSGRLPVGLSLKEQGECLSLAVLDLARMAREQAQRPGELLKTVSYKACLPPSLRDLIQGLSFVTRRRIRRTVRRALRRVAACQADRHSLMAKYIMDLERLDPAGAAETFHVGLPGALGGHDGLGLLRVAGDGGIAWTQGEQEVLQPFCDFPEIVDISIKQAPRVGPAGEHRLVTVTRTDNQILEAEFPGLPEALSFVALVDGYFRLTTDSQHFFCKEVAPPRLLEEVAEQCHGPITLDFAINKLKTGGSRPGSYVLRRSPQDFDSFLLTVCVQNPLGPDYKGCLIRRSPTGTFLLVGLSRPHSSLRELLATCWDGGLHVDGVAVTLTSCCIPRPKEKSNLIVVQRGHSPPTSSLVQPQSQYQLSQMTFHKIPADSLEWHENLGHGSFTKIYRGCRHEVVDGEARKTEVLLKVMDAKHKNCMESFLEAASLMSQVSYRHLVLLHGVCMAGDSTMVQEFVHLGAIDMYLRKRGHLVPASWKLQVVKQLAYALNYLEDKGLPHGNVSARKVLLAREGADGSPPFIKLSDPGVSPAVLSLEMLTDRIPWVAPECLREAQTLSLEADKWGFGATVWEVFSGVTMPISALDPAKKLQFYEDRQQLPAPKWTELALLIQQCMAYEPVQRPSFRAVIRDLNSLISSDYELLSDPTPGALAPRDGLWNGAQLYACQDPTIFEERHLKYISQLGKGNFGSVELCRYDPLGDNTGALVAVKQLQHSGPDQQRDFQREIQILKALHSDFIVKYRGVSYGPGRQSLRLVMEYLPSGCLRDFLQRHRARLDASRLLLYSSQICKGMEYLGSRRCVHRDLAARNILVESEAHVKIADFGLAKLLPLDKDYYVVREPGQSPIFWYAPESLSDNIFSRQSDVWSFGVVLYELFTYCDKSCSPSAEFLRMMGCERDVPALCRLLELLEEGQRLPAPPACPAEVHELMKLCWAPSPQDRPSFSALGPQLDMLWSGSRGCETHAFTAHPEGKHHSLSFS
Description: JAK3 inhibition assay (standard radioactive enzyme assay). The following applies: average Ki if more than one value determined.

Chain of JAK2 (O60674 whole entry, species assumed): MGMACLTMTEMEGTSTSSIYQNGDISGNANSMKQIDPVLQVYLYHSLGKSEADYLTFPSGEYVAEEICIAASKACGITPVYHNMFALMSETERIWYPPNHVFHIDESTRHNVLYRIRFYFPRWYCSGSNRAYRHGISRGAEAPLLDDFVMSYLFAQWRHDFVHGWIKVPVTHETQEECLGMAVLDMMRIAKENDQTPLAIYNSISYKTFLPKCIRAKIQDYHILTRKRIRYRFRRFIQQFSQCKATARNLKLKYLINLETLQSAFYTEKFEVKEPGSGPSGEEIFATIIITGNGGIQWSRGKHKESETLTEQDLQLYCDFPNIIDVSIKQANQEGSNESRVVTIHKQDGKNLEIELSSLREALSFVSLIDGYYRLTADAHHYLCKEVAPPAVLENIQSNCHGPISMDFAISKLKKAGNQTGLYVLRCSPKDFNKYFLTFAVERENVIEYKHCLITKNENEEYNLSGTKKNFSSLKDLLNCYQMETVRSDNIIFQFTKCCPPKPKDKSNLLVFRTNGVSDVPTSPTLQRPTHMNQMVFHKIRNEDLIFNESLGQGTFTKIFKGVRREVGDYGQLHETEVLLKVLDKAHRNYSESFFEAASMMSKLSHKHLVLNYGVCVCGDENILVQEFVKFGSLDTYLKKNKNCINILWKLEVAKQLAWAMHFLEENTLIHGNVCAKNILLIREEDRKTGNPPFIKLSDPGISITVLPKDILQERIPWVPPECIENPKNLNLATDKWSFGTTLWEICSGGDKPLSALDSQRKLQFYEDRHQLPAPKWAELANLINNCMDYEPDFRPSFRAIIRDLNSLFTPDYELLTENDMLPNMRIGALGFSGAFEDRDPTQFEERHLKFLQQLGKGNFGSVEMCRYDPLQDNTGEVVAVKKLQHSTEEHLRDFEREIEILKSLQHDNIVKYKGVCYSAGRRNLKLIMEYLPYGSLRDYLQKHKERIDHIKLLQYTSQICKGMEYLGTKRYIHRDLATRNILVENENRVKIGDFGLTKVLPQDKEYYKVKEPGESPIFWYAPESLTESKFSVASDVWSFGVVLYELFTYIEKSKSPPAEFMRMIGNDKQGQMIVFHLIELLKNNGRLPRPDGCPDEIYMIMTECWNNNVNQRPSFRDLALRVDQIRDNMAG

On to `CC(=O)N1[C@H](C)CN(c2ccc([N+](=O)[O-])c(-c3c[nH]c4ncc(Cl)cc34)n2)C[C@@H]1C` [Compound 78], for which the pKi in assay [1] is greater than 6.30; in assay [2], greater than 6.30; in assay [3] it was 5.30 to 6.30; in assay [4], greater than 6.30.

On to `CC(=O)N1[C@H](C)CN(c2cccc(-c3c[nH]c4ncc(C(=O)N5C[C@@H](C)N[C@@H](C)C5)cc34)n2)C[C@@H]1C` [Compound 52], for which the negative logarithm of the Ki (pKi) was less than 5.30 in assay [1], 5.30 to 6.30 in assay [2], 5.30 to 6.30 in assay [3] and less than 5.30 in assay [4].

Take `CC(=O)N1[C@H](C)CN(c2cccc(-c3c[nH]c4ncc(NC(=O)CCN5CCNCC5)cc34)n2)C[C@@H]1C` [Compound 128]: the pKi in assay [1] was greater than 6.30; in assay [2] it was 5.30 to 6.30; in assay [3], 5.30 to 6.30; in assay [4], greater than 6.30.

Consider `CC(=O)N1[C@H](C)CN(c2cccc(-c3c[nH]c4ncc(NC(=O)c5cccc(F)c5)cc34)n2)C[C@@H]1C` [Compound 169], for which the pKi in assay [1] was greater than 6.30; in assay [2] it was 5.30 to 6.30; in assay [3] it was 5.30 to 6.30; in assay [4], greater than 6.30.

As to `CC(=O)N1[C@H](C)CN(c2cccc(-c3c[nH]c4ncc(NC(=O)c5nc[nH]n5)cc34)n2)C[C@@H]1C` [Compound 190], the negative logarithm of the Ki (pKi) was greater than 6.30 in assay [1], 5.30 to 6.30 in assay [2], 5.30 to 6.30 in assay [3] and greater than 6.30 in assay [4].

In the case of `CC(=O)N1[C@H](C)CN(c2cccc(-c3c[nH]c4ncc(NC(=O)Oc5ccccc5)cc34)n2)C[C@@H]1C` [Compound 69], the pKi in assay [1] is greater than 6.30; in assay [2] it was 5.30 to 6.30; in assay [3], 5.30 to 6.30; in assay [4] it was greater than 6.30.

As to `CC(=O)N1[C@H](C)CN(c2cccc(-c3c[nH]c4ncc(NC(=O)/C=C/Cl)cc34)n2)C[C@@H]1C` [Compound 192], the pKi in assay [1] was greater than 6.30; in assay [2], 5.30 to 6.30; in assay [3] it was greater than 6.30; in assay [4] it was greater than 6.30.

As to `CC(=O)N1[C@H](C)CN(c2cccc(-c3c[nH]c4ncc(OCCN5CCOCC5)cc34)n2)C[C@@H]1C` [Compound 95], the pKi in assay [1], in assay [2], in assay [3] and in assay [4] was 5.30 to 6.30 in each case.

For `CC(=O)N1[C@H](C)CN(c2cccc(-c3c[nH]c4ncc(C(=O)O)cc34)n2)C[C@@H]1C` [Compound 47], the pKi in assay [1] is greater than 6.30; in assay [2] it was 5.30 to 6.30; in assay [3], 5.30 to 6.30; in assay [4], greater than 6.30.

Turning to `CC(=O)N1[C@H](C)CN(c2cccc(-c3c[nH]c4ncc(C)cc34)n2)C[C@@H]1C` [Compound 41], the pKi in assay [1] was greater than 6.30; in assay [2], greater than 6.30; in assay [3], 5.30 to 6.30; in assay [4], greater than 6.30.

Regarding `CC(=O)N1[C@H](C)CN(c2cccc(-c3c[nH]c4ncc(C(=O)OC(C)C)cc34)n2)C[C@@H]1C` [Compound 53], the negative logarithm of the Ki (pKi) in assay [1], in assay [2], in assay [3] and in assay [4] was greater than 6.30 in each case.

`CC(=O)N1[C@H](C)CN(c2cccc(-c3c[nH]c4ncc(NC(=O)C5=CCCCC5)cc34)n2)C[C@@H]1C` [Compound 155]: the pKi was greater than 6.30 in assay [1], 5.30 to 6.30 in assay [2], 5.30 to 6.30 in assay [3] and greater than 6.30 in assay [4].

Consider `CC(=O)N1[C@H](C)CN(c2cccc(-c3c[nH]c4ncc(NC(=O)C(C)C)cc34)n2)C[C@@H]1C` [Compound 117], for which the negative-log Ki (pKi) in assay [1] was greater than 6.30; in assay [2] it was 5.30 to 6.30; in assay [3], 5.30 to 6.30; in assay [4] it was greater than 6.30.

Regarding `CC(=O)N1[C@H](C)CN(c2ccc(N)c(-c3c[nH]c4ncc(Cl)cc34)n2)C[C@@H]1C` [Compound 81], the pKi in assay [1] was 5.30 to 6.30; in assay [2], greater than 6.30; in assay [3], 5.30 to 6.30; in assay [4], 5.30 to 6.30.

Take `CC(C)CNc1cc(C#N)cc(-c2c[nH]c3ncc(Cl)cc23)n1` [Compound 150]: the pKi in assay [1] was greater than 6.30; in assay [2] it was 5.30 to 6.30; in assay [3], 5.30 to 6.30; in assay [4] it was greater than 6.30.

In the case of `CC(=O)N1[C@H](C)CN(c2nc(-c3c[nH]c4ncc(Cl)cc34)ccc2N)C[C@@H]1C` [Compound 76], the negative logarithm of the Ki (pKi) in assay [1] is greater than 6.30; in assay [2], greater than 6.30; in assay [3], 5.30 to 6.30; in assay [4] it was greater than 6.30.

With `CC(=O)N1[C@H](C)CN(c2cc(C#N)cc(-c3c[nH]c4ncc(Cl)cc34)n2)C[C@@H]1C` [Compound 98], the negative-log Ki (pKi) is greater than 6.30 in assay [1], greater than 6.30 in assay [2], 5.30 to 6.30 in assay [3] and greater than 6.30 in assay [4].

For `C[C@H](CO)Nc1cccc(-c2c[nH]c3ncc(Cl)cc23)n1` [Compound 102], the pKi is greater than 6.30 in assay [1], 5.30 to 6.30 in assay [2], 5.30 to 6.30 in assay [3] and greater than 6.30 in assay [4].

As for `Fc1cnc2[nH]cc(-c3cccc(NCc4ccccc4)n3)c2c1` [Compound 48], the negative-log Ki (pKi) in assay [1] is greater than 6.30; in assay [2] it was greater than 6.30; in assay [3], 5.30 to 6.30; in assay [4] it was greater than 6.30.

As to `CC(=O)N1[C@H](C)CN(c2cccc(-c3c[nH]c4ncc(NC(=O)c5cccc(C)c5)cc34)n2)C[C@@H]1C` [Compound 168], the pKi in assay [1] is greater than 6.30; in assay [2], 5.30 to 6.30; in assay [3], 5.30 to 6.30; in assay [4], greater than 6.30.

With `CC(=O)N1[C@H](C)CN(c2cccc(-c3c[nH]c4ncc(C(=O)N5CCN(C)CC5)cc34)n2)C[C@@H]1C` [Compound 57], the negative-log Ki (pKi) in assay [1] was less than 5.30; in assay [2] it was 5.30 to 6.30; in assay [3], 5.30 to 6.30; in assay [4], 5.30 to 6.30.

For `CC(C)CNc1cccc(-c2c[nH]c3ncc(Cl)cc23)n1` [Compound 99], the pKi in assay [1] is greater than 6.30; in assay [2], greater than 6.30; in assay [3] it was 5.30 to 6.30; in assay [4], greater than 6.30.

Consider `CC(=O)N1[C@H](C)CN(c2cccc(-c3c[nH]c4ncc(NC(=O)c5cccnc5)cc34)n2)C[C@@H]1C` [Compound 163], for which the pKi in assay [1] was greater than 6.30; in assay [2], 5.30 to 6.30; in assay [3], 5.30 to 6.30; in assay [4], greater than 6.30.

`CC(=O)N1[C@H](C)CN(c2cccc(-c3c[nH]c4ncc(NC(=O)C5CCCCC5)cc34)n2)C[C@@H]1C` [Compound 158]: the negative logarithm of the Ki (pKi) in assay [1] was greater than 6.30; in assay [2], 5.30 to 6.30; in assay [3], 5.30 to 6.30; in assay [4], greater than 6.30.

For the molecule `O=C(O)c1ccc(NCc2ccccc2)nc1-c1c[nH]c2ncc(Cl)cc12` [Compound 44], the negative logarithm of the Ki (pKi) was 5.30 to 6.30 in assay [1], greater than 6.30 in assay [2], 5.30 to 6.30 in assay [3] and 5.30 to 6.30 in assay [4].

On to `CC(=O)N1[C@H](C)CN(c2cc(C)c(C#N)c(-c3c[nH]c4ncc(Cl)cc34)n2)C[C@@H]1C` [Compound 80], for which the negative-log Ki (pKi) in assay [1] was greater than 6.30; in assay [2], greater than 6.30; in assay [3], 5.30 to 6.30; in assay [4] it was greater than 6.30.
